According to the supplement of paper PMC10627819:

Columns and labels:
[1] = test system: B. subtilis 168; experiment: fitness (endpoint OD595 vs no drug) (fraction); higher = more growth
Procedure, shortened: (§1)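 Bacterial growth was followed in 384-well plates seeded at OD595 0.01, with 30 µl per well, or 55 µl for S. pneumoniae, in TSB, LB Lennox or CY at 37 °C. OD595 was read every 30 min for 14 h, and each reading had the first reading subtracted as background. Fitness is the background-corrected optical density at entry into stationary phase divided by the robust mean of the no-drug control wells. This ratio is capped at 1.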

[2] = test system: S. pneumoniae D39V; experiment: as above
Procedure, shortened: as §1

[3] = test system: S. aureus DSM 20231; experiment: as above
Procedure, shortened: as §1

[4] = test system: B. subtilis 168; experiment: Bliss interaction score (quartile over a dose matrix) (fitness difference); higher = more antagonism (negative = synergy)
Procedure, shortened: (§2)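 Each plate was normalised to the robust mean of its own no-drug wells, using OD595 at entry into stationary phase, with values capped at 1. This normalised growth is the fitness value. The Bliss score is the difference between observed and product-expected fitness, with single-drug fitness inferred from the combination data and quartiles taken over technical, biological and donor/recipient replicates.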

[5] = test system: S. pneumoniae D39V; experiment: as above
Procedure, shortened: as §2

[6] = test system: S. aureus DSM 20231; experiment: as above
Procedure, shortened: as §2

[7] = test system: S. aureus Newman; experiment: as above
Procedure, shortened: as §2
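Wherever Bliss interaction score (quartile over a dose matrix) is given: first quartile when negative (synergy) and third quartile when positive (antagonism).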

O=C(O[C@@H]1Cc2c(O)cc(O)cc2O[C@@H]1c1cc(O)c(O)c(O)c1)c1cc(O)c(O)c(O)c1 [EGCG] + CCC[C@@H]1C[C@@H](C(=O)N[C@@H]([C@H]2O[C@H](SC)[C@H](O)[C@@H](O)[C@H]2O)[C@@H](C)O)N(C)C1 [Lincomycin]
fitness
Details	partner 0.1 µg/mL	partner 0.2 µg/mL	partner 0.215 µg/mL	partner 0.4 µg/mL	partner 0.43 µg/mL	partner 0.8 µg/mL	partner 0.86 µg/mL
[1], first compound 6.25 µg/mL	0.889	0.88	–	0.908	–	–	–
[2], first compound 12.5 µg/mL	–	0.429	0.739	0.273	0.565	0.0193	0.389
[2], first compound 25 µg/mL	–	0.483	0.713	0.439	0.668	0.0594	0.456
[2], first compound 50 µg/mL	–	0.328	0.565	0.182	0.671	–	–
[3], first compound 12.5 µg/mL	0.593	0.505	–	0.354	–	–	–
[3], first compound 25 µg/mL	0.592	0.553	–	0.306	–	–	–
[3], first compound 50 µg/mL	0.549	–	–	0.142	–	–	–

fitness, [1], one replicate
Details	first compound 6.25 µg/mL	first compound 12.5 µg/mL	first compound 25 µg/mL
partner 0.8 µg/mL	0.908	0.761	0.709
partner 1.6 µg/mL	0.864	0.734	0.606

Details	Bliss interaction score
[4]	0.102
[5]	-0.112
[6]	-0.119
[7]	-0.056

O=C(O[C@@H]1Cc2c(O)cc(O)cc2O[C@@H]1c1cc(O)c(O)c(O)c1)c1cc(O)c(O)c(O)c1 [EGCG] + COc1cc(Cc2cnc(N)nc2N)cc(OC)c1OC [Trimethoprim]
fitness, [1], one replicate
Details	partner 0.1 µg/mL	partner 0.2 µg/mL	partner 0.4 µg/mL	partner 1 µg/mL	partner 2 µg/mL
first compound 6.25 µg/mL	0.856	0.624	0.464	0.346	0.485
first compound 12.5 µg/mL	0.438	0.252	0.235	0.127	0.13
first compound 25 µg/mL	0.199	0.102	0.0997	0.0869	0.0586

fitness
Details	partner 0.125 µg/mL	partner 0.25 µg/mL	partner 0.5 µg/mL	partner 1 µg/mL
[1], first compound 6.25 µg/mL	0.611	–	0.508	–
[1], first compound 12.5 µg/mL	0.363	0.426	0.41	–
[1], first compound 25 µg/mL	0.232	–	0.244	–
[3], first compound 12.5 µg/mL	0.621	0.544	0.338	0.0444
[3], first compound 25 µg/mL	0.675	0.541	0.3	0.0338
[3], first compound 50 µg/mL	0.71	0.588	0.292	0.0285

Details	Bliss interaction score
[4]	-0.0682
[5]	0.12
[6]	0.0729
[7]	0.115

CCC[C@@H]1C[C@@H](C(=O)N[C@@H]([C@H]2O[C@H](SC)[C@H](O)[C@@H](O)[C@H]2O)[C@@H](C)O)N(C)C1 [Lincomycin] + CC1=C\[C@@H](O)CC(=O)Cc2nc(co2)C(=O)N2CCC=C2C(=O)O[C@H](C(C)C)[C@H](C)/C=C/C(=O)NC\C=C\1 [Virginiamycin M1]
Details	fitness
[1], first compound 0.1 µg/mL, partner 0.0625 µg/mL	0.945
[1], first compound 0.1 µg/mL, partner 0.125 µg/mL	0.936
[1], first compound 0.1 µg/mL, partner 0.25 µg/mL	0.922
[1], first compound 0.2 µg/mL, partner 0.0625 µg/mL	0.91
[1], first compound 0.2 µg/mL, partner 0.125 µg/mL	0.925
[1], first compound 0.2 µg/mL, partner 0.25 µg/mL	0.949
[1], first compound 0.4 µg/mL, partner 0.0625 µg/mL	0.99
[1], first compound 0.4 µg/mL, partner 0.125 µg/mL	0.871
[1], first compound 0.4 µg/mL, partner 0.25 µg/mL	0.985
[2], first compound 0.2 µg/mL, partner 2 µg/mL	0.731
[2], first compound 0.215 µg/mL, partner 0.5 µg/mL	0.857
[2], first compound 0.215 µg/mL, partner 1 µg/mL	0.882
[2], first compound 0.215 µg/mL, partner 2 µg/mL	0.836
[2], first compound 0.4 µg/mL, partner 2 µg/mL	0.642
[2], first compound 0.43 µg/mL, partner 0.5 µg/mL	0.73
[2], first compound 0.43 µg/mL, partner 1 µg/mL	0.781
[2], first compound 0.43 µg/mL, partner 2 µg/mL	0.741
[2], first compound 0.8 µg/mL, partner 2 µg/mL	0.333
[2], first compound 0.86 µg/mL, partner 0.5 µg/mL	0.268
[2], first compound 0.86 µg/mL, partner 1 µg/mL	0.207
[2], first compound 0.86 µg/mL, partner 2 µg/mL	0.195
[3], first compound 0.1 µg/mL, partner 0.0625 µg/mL	0.844
[3], first compound 0.1 µg/mL, partner 0.125 µg/mL	0.857
[3], first compound 0.1 µg/mL, partner 0.25 µg/mL	0.875
[3], first compound 0.2 µg/mL, partner 0.0625 µg/mL	0.73
[3], first compound 0.2 µg/mL, partner 0.125 µg/mL	0.736
[3], first compound 0.2 µg/mL, partner 0.25 µg/mL	0.7
[3], first compound 0.4 µg/mL, partner 0.0625 µg/mL	0.361
[3], first compound 0.4 µg/mL, partner 0.125 µg/mL	0.242
[3], first compound 0.4 µg/mL, partner 0.25 µg/mL	0.267

fitness, one replicate
Details	first compound 0.1 µg/mL	first compound 0.2 µg/mL	first compound 0.4 µg/mL	first compound 0.8 µg/mL
[2], partner 0.15 µg/mL	–	0.807	0.694	0.596
[2], partner 0.3 µg/mL	–	0.796	0.657	0.573
[2], partner 0.5 µg/mL	–	0.8	0.761	0.449
[2], partner 1 µg/mL	–	0.71	0.655	0.416
[3], partner 0.5 µg/mL	0.878	0.66	0.3	–
[3], partner 1 µg/mL	0.7	0.486	0.238	–

Details	Bliss interaction score
[4]	-0.0247
[5]	-0.0882
[6]	-0.0744
[7]	0.0588

CCC[C@@H]1C[C@@H](C(=O)N[C@@H]([C@H]2O[C@H](SC)[C@H](O)[C@@H](O)[C@H]2O)[C@@H](C)O)N(C)C1 [Lincomycin] + CC(=O)NC[C@H]1CN(c2ccc(N3CCOCC3)c(F)c2)C(=O)O1 [Linezolid]
Details	fitness
[1], first compound 0.1 µg/mL, partner 0.5 µg/mL	0.0626
[1], first compound 0.2 µg/mL, partner 0.125 µg/mL	0.643
[1], first compound 0.2 µg/mL, partner 0.5 µg/mL	0.0527
[1], first compound 0.4 µg/mL, partner 0.125 µg/mL	0.629
[1], first compound 0.4 µg/mL, partner 0.5 µg/mL	0.0589
[2], first compound 0.2 µg/mL, partner 0.105 µg/mL	0.717
[2], first compound 0.2 µg/mL, partner 0.21 µg/mL	0.658
[2], first compound 0.2 µg/mL, partner 0.42 µg/mL	0.519
[2], first compound 0.215 µg/mL, partner 0.2 µg/mL	0.716
[2], first compound 0.215 µg/mL, partner 0.4 µg/mL	0.649
[2], first compound 0.215 µg/mL, partner 0.8 µg/mL	0.413
[2], first compound 0.4 µg/mL, partner 0.105 µg/mL	0.627
[2], first compound 0.4 µg/mL, partner 0.21 µg/mL	0.601
[2], first compound 0.4 µg/mL, partner 0.42 µg/mL	0.234
[2], first compound 0.43 µg/mL, partner 0.2 µg/mL	0.642
[2], first compound 0.43 µg/mL, partner 0.4 µg/mL	0.583
[2], first compound 0.43 µg/mL, partner 0.8 µg/mL	0.306
[2], first compound 0.8 µg/mL, partner 0.105 µg/mL	0.278
[2], first compound 0.8 µg/mL, partner 0.21 µg/mL	0.128
[2], first compound 0.8 µg/mL, partner 0.42 µg/mL	0.0738
[2], first compound 0.86 µg/mL, partner 0.2 µg/mL	0.392
[2], first compound 0.86 µg/mL, partner 0.4 µg/mL	0.311
[2], first compound 0.86 µg/mL, partner 0.8 µg/mL	0.13
[3], first compound 0.1 µg/mL, partner 0.125 µg/mL	0.824
[3], first compound 0.1 µg/mL, partner 0.25 µg/mL	0.628
[3], first compound 0.1 µg/mL, partner 0.5 µg/mL	0.276
[3], first compound 0.2 µg/mL, partner 0.125 µg/mL	0.583
[3], first compound 0.2 µg/mL, partner 0.5 µg/mL	0.192
[3], first compound 0.4 µg/mL, partner 0.125 µg/mL	0.244
[3], first compound 0.4 µg/mL, partner 0.25 µg/mL	0.146
[3], first compound 0.4 µg/mL, partner 0.5 µg/mL	0.0893

fitness, one replicate
Details	first compound 0.1 µg/mL	first compound 0.2 µg/mL	first compound 0.4 µg/mL	first compound 0.8 µg/mL	first compound 1.6 µg/mL
[1], partner 0.0625 µg/mL	–	–	0.87	0.867	0.847
[1], partner 0.125 µg/mL	–	–	–	0.633	0.638
[1], partner 0.25 µg/mL	–	–	–	0.102	0.0942
[3], partner 1 µg/mL	0.0602	0.0846	0.0423	–	–

Details	Bliss interaction score
[4]	0.158
[5]	0.0482
[6]	-0.069
[7]	-0.088
